Consider 12 compounds from patent publication US9889183B2, “PKC activators and anticoagulant in regimen for treating stroke” (BLANCHETTE ROCKEFELLER NEUROSCIENCES INSTITUTE, priority 2010, dated 2018).

One assay concerns the target T1, PKCε (Homo sapiens, UniProt Q02156).
T1 construct: purchased Calbiochem
T1 sequence (Q02156 1-737): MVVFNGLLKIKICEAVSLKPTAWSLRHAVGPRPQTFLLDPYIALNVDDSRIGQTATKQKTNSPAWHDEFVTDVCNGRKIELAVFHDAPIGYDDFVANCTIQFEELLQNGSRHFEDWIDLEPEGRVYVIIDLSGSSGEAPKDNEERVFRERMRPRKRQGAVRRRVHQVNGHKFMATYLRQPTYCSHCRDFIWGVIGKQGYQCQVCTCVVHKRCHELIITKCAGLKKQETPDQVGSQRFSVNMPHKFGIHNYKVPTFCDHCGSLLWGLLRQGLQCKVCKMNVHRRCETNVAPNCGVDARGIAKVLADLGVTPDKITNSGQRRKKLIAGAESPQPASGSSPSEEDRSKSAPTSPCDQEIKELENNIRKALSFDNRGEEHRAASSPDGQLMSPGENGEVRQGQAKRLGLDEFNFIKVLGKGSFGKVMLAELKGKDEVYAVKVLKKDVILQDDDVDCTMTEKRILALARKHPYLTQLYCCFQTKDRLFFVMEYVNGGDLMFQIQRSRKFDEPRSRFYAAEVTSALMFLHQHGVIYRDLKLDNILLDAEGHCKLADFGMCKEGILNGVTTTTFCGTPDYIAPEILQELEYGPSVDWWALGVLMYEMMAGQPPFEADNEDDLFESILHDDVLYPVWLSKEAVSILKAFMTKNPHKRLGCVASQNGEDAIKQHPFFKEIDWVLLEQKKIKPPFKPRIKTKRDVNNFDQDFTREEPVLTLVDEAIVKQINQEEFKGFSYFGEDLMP
Description: PKC assay with purified PKCε. Format: biochemical. The note with it: for activation of purified PKCε (in words): FIG. 7, methyl esters. The protocol: PKC assay. Recombinant PKC (1 ng of PKCα or PKCε isoform) was mixed with BR-101 (DCP-LA) in the presence of 10 micromolar histones, 5 mM CaCl2, 1.2 μg/μl phosphatidyl-L-serine, 0.18 μg/μl 1,2-dioctanoyl-sn-glycerol (DAG), 10 mM MgCl2, 20 mM HEPES (pH 7.4), 0.8 mM EDTA, 4 mM EGTA, 4% glycerol, 8 μg/ml aprotinin, 8 μg/ml leupeptin, and 2 mM benzamidine. 0.5 micro Ci[^γ32P]ATP was added. The incubation mixture was incubated for 15 min at 37 degrees in a total volume of 10 microliters. The reaction was stopped by spotting the reaction mixtures on 1×2 cm strips of cellulose phosphate paper (Whatman P81) and immediately washing twice for 1 hr in 0.5% H3PO4. The cellulose phosphate strips were counted in a scintillation counter. In some experiments, phosphatidylserine, diacylglycerol, and/or calcium were removed.
DHA methyl ester was purchased from Cayman Chemical (Ann Arbor, Me.). PKC isozymes were from Calbiochem (San Diego, Calif.). Purified PKCε was purchased from Calbiochem.
(§1) Protein kinase C assay. Rat hippocampal cells were cultured and scraped in 0.2 ml homogenization buffer (20 mM Tris-HCl, pH 7.4, 50 mM NaF, 1 μg/ml leupeptin, and 0.1 mM PMSF) and homogenized by sonication a Marsonix microprobe sonicator (5 sec, 10 W). To measure PKC, 10 μl of cell homogenate or purified PKC isozyme (purchased from Calbiochem) was incubated for 15 min at 37° C. in the presence of 10 μM histones, 4.89 mM CaCl2, 1.2 μg/μl phosphatidyl-L-serine, 0.18 μg/μl 1,2-dioctanoyl-sn-glycerol, 10 mM MgCl2, 20 mM HEPES (pH 7.4), 0.8 mM EDTA, 4 mM EGTA, 4% glycerol, 8 μg/ml aprotinin, 8 μg/ml leupeptin, and 2 mM benzamidine. […][^γ32P]ATP was added and ^32P-phosphoprotein formation was measured by adsorption onto phosphocellulose as described previously. Nelson and Alkon, J. Neurochemistry (1995), vol. 65, pp. 2350-2357. For measurements of activation by BR-101 (DCP-LA) and similar compounds. PKC activity was measured in the absence of diacylglycerol and phosphatidylserine and PKC δ, ε, η, and μ were measured in the absence of added EGTA and CaCl2, as described by Kanno et al. (J. Lipid Res. 2006, vol. 47, pp. 1146-1150). Low concentrations of Ca^2+ are used because high Ca^2+ interacts with the PKC phosphatidylserine binding site and prevents activation. For measurements of bryostatin activation, 1,2-diacylglycerol was omitted unless otherwise stated.
To determine their PKC isozyme specificity, fatty acid derivatives were preincubated with purified PKC for five minutes and the PKC activity was measured radiometrically.

Another assay has as its system PKC. The note with it: cited from earlier work.
Assay [1] concerns squamous cell carcinoma and melanoma. Particulars: used topically; cited from earlier work.
Assay [2] concerns global cerebral ischemia/hypoxia in rats. Description: Global ischemia model, water maze (Examples 10-11). Format: in vivo, rat.
Description: Rats (male, Wistar, 200-225 g) were randomly divided into 6 groups (8 each) and housed for 1 week before experimentation. […] The global ischemia model used to induce vascular memory impairment was two-vessel occlusion combined with a short term systemic hypoxia. Ligation of the bilateral common carotid arteries was performed under anesthesia (pentobarbital, 60 mg/kg, i.p.). After a one-week recovery from the surgery, rats were exposed to 14-min hypoxia (5% oxygen in a glass jar). Control rats (sham operated and vehicle controls) were subjected to the same incision to isolate both common carotid arteries and to 14-min air (in the glass jar). Body temperature was kept at 37-37.5° C. using a heating light source during the surgical procedure and until the animals were fully recovered.
Assay [3] deals with PKC in H19-7/IGF-IR cells. Description: PKC activity over time in rat H19-7/IGF-IR hippocampal cells. It counts as cell-based. The note with it: treated cells, 8 hours; data not shown. How it is done: Cell culture. Rat hippocampal H19-7/IGF-IR cells (ATCC, Manassas, Va.) were plated onto poly-L-lysine coated plates and grown at 35° C. in DMEM/10% FCS for several days until about 50% coverage was obtained. The cells were then induced to differentiate into a neuronal phenotype by replacing the medium with 5 ml N2 medium containing 10 ng/ml basic fibroblast growth factor at 39° C. and grown in T-75 flasks at 37° C. Human SH-SY5Y neuroblastoma cells (ATCC) were cultured in 45% F12K/45% MEM/10% FCS. Mouse N2A neuroblastoma cells were cultured in DMEM/10% FCS without glutamine. Rat hippocampal neurons from 18-day-old embryonic Sprague Dawley rat brains were plated on 12- or 96-well plates coated with poly-D-lysine (Sigma-Aldrich, St. Louis, Mo.) in B-27 neurobasal medium containing 0.5 mM glutamine and 25 μM glutamate (Invitrogen, Carlsbad, Calif.) and cultured for three days in the medium without glutamate. The neuronal cells were grown under 5% CO2 in an incubator maintained at 37° C. for 14 days.
as §1
PKC activators that bind to the diacylglycerol binding site, including bryostatin, gnidimacrin, and phorbol esters, produce a transient activation of PKC activity, followed by a prolonged downregulation. Nelson et al., Trends in Biochem. Sci. (2009), vol. 34, pp. 136-145. This was confirmed in cultured rat hippocampal cells. Incubation of rat H19-7/IGF-IR cells with (0.04 nM and 0.2 nM) bryostatin produced a 2-fold activation that lasted 30 min, followed by a 20% downregulation that returned to baseline by 24 hours (data not shown). […] This sustained activation was only observed in primary neurons.

The subject of the next assay is Aβ in COS cells. The note with it: 1 μM, cultured COS cells, 8 hours; cited from earlier work.
[4] abbreviates: non-ischemic rats, same regimens.

Consider `CCCCCC1OC1C/C=C\CCCCCCCC(=O)OC` (stereo in doubt) [BR-117, vernolic acid methyl ester], for which the “effect on PKC” value on PKCε (FIG. 8) was “little or no effect”. With `CCCCCCCC(=O)O[C@H]1/C(=C/C(=O)OC)C[C@H]2C[C@H](CO)OC(=O)C[C@H](O)C[C@@H]3CCC[C@H](C[C@@H]4CCO[C@H](/C=C/C(C)(C)[C@]1(O)O2)O4)O3` [Analog 1], in the assay on PKC, the “affinity for PKC (in words)” value is on record as “highest affinity”. Turning to `CCC1CC1CC1CC1CC1CC1CCCCCCCCO` (stereo not shown) [BR-104, linolenic alcohol tricyclopropane], the “effect on PKC” value at PKCε (FIG. 8) was “little or no effect”. On the same count and under the same terms, then `CCCCCC1CC1CC1CC1CCCCCCCCO` (stereo not shown) [BR-105, linoleic alcohol dicyclopropane], with “little or no effect”. Consider `CCCCC[C@H]1O[C@H]1CC1CC1CCCCCCCC(=O)OC` (stereo partly shown) [BR-109, vernolic acid methyl ester cyclopropane], for which, on PKCε (FIG. 8), the “concentrations at which PKCε is inhibited” value is recorded as “above 1 μM”.

`CCC1CC1CC1CC1CC1CC1CC1CC1CC1CC1CCCC(=O)OC` (stereo not shown) [BR-114]: at PKCε, the “concentration needed to activate PKC relative to BR-101 (DCP-LA)” value is recorded as “approximately 100 times lower” and the “activation of purified PKCε (in words)” value was “activated purified PKCε to a similar extent”. As to `CCCCCC1CC1CC1CC1CC1CC1CC1CC1CCCC(=O)OC` (stereo not shown) [BR-115, methyl 4-(2-((2-((2-((-pentylcyclopropyl)methyl)cyclopropyl)methyl)cyclopropyl)methyl)cyclopropyl)butanoate methyl ester], at PKCε, the “concentration needed to activate PKC relative to BR-101 (DCP-LA)” value is recorded as “approximately 100 times lower” and the “activation of purified PKCε (in words)” value was “activated purified PKCε to a similar extent”.

On to `C/C=C(/C)C(=O)O[C@H]1C(C)=C[C@]23C(=O)[C@@H](C=C(CO)[C@@H](O)[C@]12O)[C@H]1[C@@H](C[C@H]3C)C1(C)C` [Ingenol-3-angelate], for which the antitumor activity result in assay [1] is on record as “exhibits antitumor activity”. In the case of `Cc1ccc(OCC(=O)O)c(OCC(=O)O)c1` [MCDA, 4-Methylcatechol-diacetic acid], the “water maze spatial learning, ischemic treated vs ischemic rats” value in assay [2] (bryostatin-1 20 μg/m^2 i.v. 2 doses/week, 10 doses, MCDA 1.0 mg/kg i.p. daily 5 weeks, start 24 hours after hypoxia) was “improved the learning”. In assay [2] (setting [4]), the “target quadrant ratio in probe test, drug-only vs control rats” value is “no differences” and the “water maze spatial learning, drug-only vs control rats” value is “no differences”. Moreover, in assay [2] (same regimens), the “target quadrant ratio in probe test, ischemic treated vs control rats” value is on record as “no differences”; the “target quadrant ratio in probe test, ischemic treated vs ischemic rats” value was “group differences”; the “water maze spatial learning, ischemic treated vs control rats” value was “remained significant”. On to `CCCCCCCCCCCCCC(=O)O[C@@H]1[C@@H](C)[C@@]2(O)[C@@H](C=C(CO)C[C@]3(O)C(=O)C(C)=C[C@@H]23)[C@@H]2C(C)(C)[C@]12OC(C)=O` [PMA, phorbol 12-myristate 13-acetate], for which the “PKC activity at 8 hours (downregulation)” value in assay [3] is “strongly downregulated”. On to `CCCC(=O)O[C@@H]1[C@@H](C)[C@@]2(O)[C@@H](C=C(CO)C[C@]3(O)C(=O)C(C)=C[C@@H]23)[C@@H]2C(C)(C)[C@]12OC(=O)CCC` [PdBu], for which the “effect on Aβ” value in the assay on Aβ in COS cells is “increase in Aβ”.

For the compound epoxystearic acid [BR-116], the “effect on PKC” value on PKCε (FIG. 8) is on record as “little or no effect”.
